From patent US20130204033A1, “ANTIPROLIFERATIVE COMPOUNDS, CONJUGATES THEREOF, METHODS THEREFOR, AND USES THEREOF” (Medarex, Inc., priority 2009, published 2013) come the findings set out here.

Like-named read-outs stand apart in the source and are kept apart here.

What all share (type): cell-based, human
In assay [1] the test system is DMS53. As to the kind of experiment: 3H thymidine proliferation assay, DMS53. Particulars: Homo sapiens, DMS-53, read-out: EC50, DMS53, 3H thymidine method, 72 h incubation. The method in brief:
(§1)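 Cells seeded at 1.0×10^4 cells/well for 3 h, then exposed to 1:3 serial dilutions of free compounds or conjugates for 72 h. 1.0 μCi ^3H-thymidine per well was added for the last 24 h, and incorporation was read by scintillation counting. EC50 is the concentration reducing proliferation by 50%.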

For assay [2], the system named is MDA-MB-231. As to the kind of experiment: ATP luminescence proliferation assay, MDA-MB-231. Particulars: Homo sapiens. The procedure:
(§2) This example generally describes the procedures used to assay the antiproliferative activity of compounds of this invention or their conjugates. Human tumor cell lines were obtained from the American Type Culture Collection (ATCC), P.O. Box 1549, Manassas, Va. 20108, USA, and cultured according to instruction from the ATCC. Cells were seeded at 1.0×10^3 or 1.0×10^4 cells/well in 96-well plates for 3 h for ATP assays or ^3H thymidine assays, respectively. 1:3 serial dilutions of free (unconjugated) compounds or their conjugates were added to the wells. Plates were allowed to incubate for 24 to 72 h. The ^3H thymidine plates were pulsed with 1.0 μCi of ^3H-thymidine per well for the last 24 hours of the total incubation period, harvested, and read on a Top Count Scintillation Counter (Packard Instruments, Meriden, Conn.). ATP levels in the ATP plates were measured using the […]-GLO® Luminescent Cell Viability kit following the manufacturer's manual and read on a GLOMAX® 20/20 luminometer (both from Promega, Madison, Wis., USA). The EC50 values—the concentration at which an agent inhibits or reduces cell proliferation by 50% —were determined using PRISM™ software, version 4.0 (GraphPad Software, La Jolla, Calif., USA).
(§3) Using the ^3H thymidine or the ATP luminescence assay, or both, the activities of compounds of this invention were assayed against the following cancer cell lines: HCT-15 (colorectal cancer, multi-drug resistant (MDR)); Hep3B (liver cancer); LNCaP (prostate cancer, androgen receptor positive (AR^+)); MDA-MB-231 (breast cancer, estrogen receptor, progesterone receptor, and Her2 negative (triple negative)); A2058 (melanoma); U-87 MG (glioblastoma); NCI-H460 (NSCLC); A549 (NSCLC); HPAC (pancreatic cancer, primary); PC3 (prostate cancer, AR); BT474 (breast cancer, Her2 highly positive (Her2hi)); SKOV3 (ovarian cancer, Her2hi); 786-O (renal cancer); UO-31 (renal cancer, MDR); NCI-H740 (SCLC); DMS53 (SCLC); SK-BR3 (breast cancer, Her2hi); ZR-75 (breast cancer, estrogen receptor positive); OVCAR3 (ovarian cancer); HL-60 (APL); OVCAR8/Adr (ovarian cancer, MDR); CEM-Cl (ALL); Nomo-1 (AML); RPMI-8226 (MM)); Raji (lymphoma); SW-480 (colorectal cancer, metastatic); SW-620 (colorectal cancer); and H226 (lung cancer). (Not all compounds were assayed against all cell lines.)
(§4) Table 3 provides the data for the ATP luminescence proliferation assays, with an incubation period of 48, 72, or 96 h, as noted.

The subject of assay [3] is DMS53. Description: ATP luminescence proliferation assay, DMS53. The note with it: Homo sapiens. The procedure:
as §2, §3, §4

The test system of a further assay is Hep3B. As to the kind of experiment: 3H thymidine proliferation assay, Hep3B. The note with it: Homo sapiens, Hep3B, read-out: EC50, Hep3B, 3H thymidine method, 72 h incubation. Put shortly:
as §1

The test system of a further assay is HPAC. As to the kind of experiment: 3H thymidine proliferation assay, HPAC. Particulars: Homo sapiens, HPAC, read-out: EC50, HPAC, 3H thymidine method, 72 h incubation. Put shortly:
as §1

For a further assay, the system named is SK-BR3. As to the kind of experiment: ATP luminescence proliferation assay, SK-BR3. Particulars: Homo sapiens, SK-BR-3, 48 h, read-out: EC50 SK-BR3 (48 h), ATP luminescence, SK-BR3, 48 h incubation. The procedure: as §2, §3, §4
Another assay concerns HCT-15. Description: 3H thymidine proliferation assay, HCT-15. The note with it: Homo sapiens, HCT-15, read-out: EC50, HCT-15, 3H thymidine method, 72 h incubation. The method in brief: as §1
Another assay relates to UO-31. Description: ATP luminescence proliferation assay, UO-31. Particulars: Homo sapiens, UO-31, 48 h, read-out: EC50 UO-31 (48 h), ATP luminescence, UO-31, 48 h incubation. The method, then:
as §2, §3, §4

In assay [4] the test system is Nomo-1. As to the kind of experiment: ATP luminescence proliferation assay, Nomo-1. Particulars: Homo sapiens. The procedure: as §2, §3, §4
Another assay deals with 786-O. As to the kind of experiment: ATP luminescence proliferation assay, 786-O. Particulars: Homo sapiens, 786-0, 72 h, read-out: EC50 786-O (72 h), ATP luminescence, 786-O, 72 h incubation. Put shortly:
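Read-out: luminescent ATP cell viability after 48, 72 or 96 h incubation, as noted, with 1:3 serial dilutions of unconjugated compounds or their conjugates. Plating was 1.0×10^3 cells/well, 3 h before dosing. EC50 = concentration giving 50% inhibition of proliferation.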

The next assay relates to BT474. As to the kind of experiment: ATP luminescence proliferation assay, BT474. Particulars: Homo sapiens, BT-474, 48 h, read-out: EC50 BT474 (48 h), ATP luminescence, BT474, 48 h incubation. The procedure:
as §2, §3, §4

For the next assay, the system named is CEM-C1. As to the kind of experiment: 3H thymidine proliferation assay, CEM-C1. Particulars: Homo sapiens, CEM/C1, read-out: EC50, CEM-C1, 3H thymidine method, 72 h incubation. The method in brief: as §1
Another assay deals with RPMI-8226. As to the kind of experiment: ATP luminescence proliferation assay, RPMI-8226. The note with it: Homo sapiens. The procedure: as §2, §3, §4
In a further assay the test system is A2058. Description: ATP luminescence proliferation assay, A2058. Particulars: Homo sapiens. The procedure:
as §2, §3, §4

The test system of the next assay is H740. Description: 3H thymidine proliferation assay, H740. Particulars: Homo sapiens, read-out: EC50, H740, 3H thymidine method, 72 h incubation. Put shortly:
as §1

Assay [5] concerns Nomo-1. Description: 3H thymidine proliferation assay, Nomo-1. The note with it: Homo sapiens, NOMO-1, read-out: EC50, Nomo-1, 3H thymidine method, 72 h incubation. The method in brief:
as §1

Assay [6] concerns MDA-MB-231. Description: 3H thymidine proliferation assay, MDA-MB-231. Particulars: Homo sapiens, MDA-MB-231, read-out: EC50, MDA-MB-231, 3H thymidine method, 72 h incubation. Put shortly: as §1
A further assay concerns LNCaP. As to the kind of experiment: 3H thymidine proliferation assay, LNCaP. Particulars: Homo sapiens, LNCaP, read-out: EC50, LNCaP, 3H thymidine method, 72 h incubation. The method in brief:
as §1

Where [7] appears, read: MDA-MB-231, 48 h, read-out: EC50 MDA-MB-231 (48 h), ATP luminescence, MDA-MB-231, 48 h incubation.
[8] abbreviates: DMS-53, 48 h, read-out: EC50 DMS53 (48 h), ATP luminescence, DMS53, 48 h incubation.
The mark [9] stands for this setting: NOMO-1, 72 h, read-out: EC50 Nomo-1 (72 h), ATP luminescence, Nomo-1, 72 h incubation.
[10] abbreviates: RPMI-8226, 72 h, read-out: EC50 RPMI-8226 (72 h), ATP luminescence, RPMI-8226, 72 h incubation.
[11] abbreviates: A2058, 48 h, read-out: EC50 A2058 (48 h), ATP luminescence, A2058, 48 h incubation.
[12] abbreviates: MDA-MB-231, 72 h, read-out: EC50 MDA-MB-231 (72 h), ATP luminescence, MDA-MB-231, 72 h incubation.
[13] abbreviates: DMS-53, 72 h, read-out: EC50 DMS53 (72 h), ATP luminescence, DMS53, 72 h incubation.
Where [14] appears, read: A2058, 72 h, read-out: EC50 A2058 (72 h), ATP luminescence, A2058, 72 h incubation.
Setting [15] is: NOMO-1, 48 h, read-out: EC50 Nomo-1 (48 h), ATP luminescence, Nomo-1, 48 h incubation.

Consider `CCCC(NC(=O)c1csc([C@@H](C[C@H](C(C)C)N(C)C(=O)[C@@H](NC(=O)[C@H]2CCCCN2C)[C@@H](C)CC)OC)n1)C(=O)OC` (stereo partly drawn) [Compound 17], for which the EC50 is greater than 100 nM in the assay on DMS53 [1]; 65 nM in the assay with MDA-MB-231 [2] (setting [7]); roughly 80 nM in the assay with DMS53 [3] (setting [8]); greater than 100 nM in the assay with Hep3B; greater than 100 nM with HPAC; 24 nM in the assay with SK-BR3. Besides, the EC50 with HCT-15 was 392 nM; in the assay on UO-31, greater than 100 nM; with Nomo-1 [4] (setting [9]) it was 3.9 nM; in the assay with 786-O, 73 nM; in the assay with BT474 it was 23 nM; in the assay on CEM-C1, 43 nM. For the same compound, the EC50 in the assay on RPMI-8226 (setting [10]) is 15 nM; in the assay with A2058 (setting [11]) it was 30 nM; in the assay with H740, 32 nM; in the assay on Nomo-1 [5], 6.8 nM; with MDA-MB-231 [6], 84 nM; in the assay with LNCaP, greater than 100 nM.
On to `CC[C@H](C)[C@H](NC(=O)[C@H]1CCCCN1C)C(=O)N(C)[C@H](C[C@@H](OC)c1nc(C(=O)N[C@@H](Cc2ccccc2)C(=O)N[C@@H](C)C(=O)OC)cs1)C(C)C` [Compound 24], for which the EC50 in the assay with DMS53 [1] was greater than 100 nM; in the assay with MDA-MB-231 [2] (setting [12]), 13 nM; with DMS53 [3] (setting [13]), greater than 100 nM; in the assay with Hep3B it was 32 nM; with HPAC, greater than 100 nM; in the assay on SK-BR3, 8.9 nM. For the same compound, the EC50 with HCT-15 turned out to be 704 nM; in the assay on UO-31, 13 nM; with Nomo-1 [4] (setting [9]), 4 nM; in the assay with 786-O it was 36 nM; in the assay on BT474, 4.6 nM; in the assay on CEM-C1, 13 nM. Further, the EC50 with RPMI-8226 (setting [10]) amounted to 8.4 nM; with A2058 (setting [14]), 14 nM; in the assay on H740, 51 nM; with Nomo-1 [5] it was 1.1 nM; in the assay with MDA-MB-231 [6], 33 nM; in the assay with LNCaP, 76 nM.
Consider `CC[C@H](C)[C@H](NC(=O)[C@H]1CCCCN1C)C(=O)N(C)[C@H](C[C@@H](OC)c1nc(C(=O)N[C@H](CC(=O)OC)Cc2ccccc2)cs1)C(C)C` [Compound 25], for which the EC50 with DMS53 [1] is 515 nM; in the assay with MDA-MB-231 [2] (setting [12]), 202 nM; with DMS53 [3] (setting [8]), 366 nM; with Hep3B, 305 nM; in the assay with HPAC it was 206 nM; in the assay on SK-BR3, greater than 3000 nM. The EC50 was found to be 280 nM in the assay with HCT-15; 759 nM in the assay with UO-31; 83 nM in the assay on Nomo-1 [4] (setting [15]); 306 nM with 786-O; 166 nM in the assay with BT474; 225 nM with CEM-C1. For the same compound, the EC50 in the assay with RPMI-8226 (setting [10]) came out at 235 nM; in the assay on A2058 (setting [14]) it was 212 nM; in the assay with H740 it was 347 nM; in the assay on Nomo-1 [5], 116 nM; in the assay on MDA-MB-231 [6] it was 236 nM; in the assay on LNCaP it was 930 nM.
As to `CC[C@H](C)[C@H](NC(=O)[C@H]1CCCCN1C)C(=O)N(C)[C@H](C[C@@H](OC)c1nc(C(=O)N[C@H](CCC(=O)OC)Cc2ccccc2)cs1)C(C)C` [Compound 26], the EC50 with DMS53 [1] stood at 99 nM; with MDA-MB-231 [2] (setting [7]) it was 120 nM; in the assay with DMS53 [3] (setting [13]), 193 nM; in the assay on Hep3B, 18 nM; with HPAC, 11 nM; in the assay on SK-BR3 it was 253 nM. Moreover, the EC50 in the assay with HCT-15 worked out at 31 nM; with UO-31, 240 nM; in the assay with Nomo-1 [4] (setting [15]), 3.9 nM; in the assay on 786-O it was 126 nM; in the assay with BT474, 19 nM; in the assay with CEM-C1, 22 nM. For the same compound, the EC50 in the assay on RPMI-8226 (RPMI-8226, 48 h, read-out: EC50 RPMI-8226 (48 h), ATP luminescence, RPMI-8226, 48 h incubation) was 45 nM; in the assay on A2058 (setting [11]), 93 nM; with H740, 3 nM; in the assay with Nomo-1 [5], 0.36 nM; in the assay with MDA-MB-231 [6], 15 nM; in the assay with LNCaP, greater than 3000 nM.

The EC50 is the concentration that produces a half-maximal response.
